Square brackets hold non-standard residues; d marks the D form. Peptide text beside a SMILES is read from it. * marks the point of attachment. pNA = O=[N+]([O-])c1ccc(N*)cc1; pGlu = O=C1CC[C@@H](C(=O)O)N1
What was measured:
Type in all cases: biochemical
Settings in all cases: substrate solution 2 mmol/l (100 μl in 1 ml), tris buffer 50 mmol/l pH 8.0, 37° C.; pNA measured at 405 nm, Blue 49 at 623 nm
[1] = target: protein C (Homo sapiens, UniProt P04070); assay: Substrate testing: cleavage of chromogenic substrate by protein C
Sequence of protein C (P04070 212-461 limits assumed): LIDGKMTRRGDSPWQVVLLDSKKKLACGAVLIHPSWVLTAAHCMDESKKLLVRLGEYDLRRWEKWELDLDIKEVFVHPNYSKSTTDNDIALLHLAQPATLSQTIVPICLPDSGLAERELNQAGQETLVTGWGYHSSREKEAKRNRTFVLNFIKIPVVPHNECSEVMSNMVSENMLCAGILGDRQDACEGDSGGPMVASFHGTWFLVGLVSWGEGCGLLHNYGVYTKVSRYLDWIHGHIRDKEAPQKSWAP
Sequence of protein C (P04070 43-197 partner limits assumed): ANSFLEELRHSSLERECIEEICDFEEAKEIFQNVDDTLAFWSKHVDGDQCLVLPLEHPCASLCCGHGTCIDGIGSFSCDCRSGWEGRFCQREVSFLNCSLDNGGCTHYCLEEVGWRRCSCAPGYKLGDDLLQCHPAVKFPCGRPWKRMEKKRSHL
Description: (§1) 100 μl of the enzyme solution were added to a 800 μl of buffer solution (trishydroxyaminomethane, 50 mmol/l), pH 8.0, at 37° C., and 100 μl of 2 mmol/l of substrate solution were added. pNA cleaved off was measured at 405 nm, and Blue 49 or Blue 124 was measured at 623 nm. The cleavage rates were determined in OD/minute. The relative cleavage raten, and thus the specificities of some substrates and enzymes, can be seen from Table II.

[2] = target: thrombin (Homo sapiens, UniProt P00734); assay: Substrate testing: cleavage of chromogenic substrate by thrombin
Description: as §1

[3] = target: plasmin (Homo sapiens, UniProt P00747); assay: Substrate testing: cleavage of chromogenic substrate by plasmin
Sequence of plasmin (P00747 581-810 limits assumed, species assumed): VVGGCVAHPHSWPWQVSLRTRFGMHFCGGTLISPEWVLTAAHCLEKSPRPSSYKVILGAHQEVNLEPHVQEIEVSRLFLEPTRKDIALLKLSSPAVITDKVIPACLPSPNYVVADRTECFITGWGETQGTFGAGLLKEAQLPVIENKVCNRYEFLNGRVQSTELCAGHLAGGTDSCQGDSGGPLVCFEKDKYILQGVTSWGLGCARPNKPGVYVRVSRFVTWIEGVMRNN
Sequence of plasmin (P00747 97-580 partner limits assumed, species assumed): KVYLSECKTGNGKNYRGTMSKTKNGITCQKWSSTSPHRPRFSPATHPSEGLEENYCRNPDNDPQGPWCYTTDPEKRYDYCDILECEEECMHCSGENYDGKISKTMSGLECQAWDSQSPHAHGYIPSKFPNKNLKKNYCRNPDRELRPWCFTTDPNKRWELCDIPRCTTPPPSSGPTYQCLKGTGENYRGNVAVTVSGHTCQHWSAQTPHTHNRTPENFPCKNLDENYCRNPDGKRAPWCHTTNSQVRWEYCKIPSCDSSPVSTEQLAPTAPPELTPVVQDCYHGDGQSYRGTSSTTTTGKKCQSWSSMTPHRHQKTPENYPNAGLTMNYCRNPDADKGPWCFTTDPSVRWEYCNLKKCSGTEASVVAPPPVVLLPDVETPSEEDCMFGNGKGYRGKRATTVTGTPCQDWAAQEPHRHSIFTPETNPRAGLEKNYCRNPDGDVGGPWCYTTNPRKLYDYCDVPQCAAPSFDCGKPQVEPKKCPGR
Description: as §1

[4] = target: F Xa (Homo sapiens, UniProt P00742); assay: Substrate testing: cleavage of chromogenic substrate by F Xa
Sequence of F Xa (P00742 235-488 limits assumed): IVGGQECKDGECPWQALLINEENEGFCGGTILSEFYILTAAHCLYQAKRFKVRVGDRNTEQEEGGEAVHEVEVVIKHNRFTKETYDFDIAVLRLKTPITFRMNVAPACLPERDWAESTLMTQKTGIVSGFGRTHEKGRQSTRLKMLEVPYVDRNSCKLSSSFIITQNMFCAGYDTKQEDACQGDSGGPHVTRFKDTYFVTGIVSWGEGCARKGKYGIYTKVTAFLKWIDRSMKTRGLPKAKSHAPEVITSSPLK
Sequence of F Xa (P00742 41-179 partner limits assumed): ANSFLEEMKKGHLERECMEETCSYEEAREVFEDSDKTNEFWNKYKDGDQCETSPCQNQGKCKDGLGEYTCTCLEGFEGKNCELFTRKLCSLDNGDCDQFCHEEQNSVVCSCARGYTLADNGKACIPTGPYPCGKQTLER
Description: as §1

[5] = test system: kallikrein; assay: Substrate testing: cleavage of chromogenic substrate by kallikrein
Description: as §1

[6] = target: urokinase (Homo sapiens, UniProt P00749); assay: Substrate testing: cleavage of chromogenic substrate by urokinase
Description: as §1

Molecule	cleavage rate, protein C [1] [OD/minute]	cleavage rate, thrombin [2] [OD/minute]	cleavage rate, plasmin [3] [OD/minute]	cleavage rate, F Xa [4] [OD/minute]	cleavage rate, urokinase [6]	cleavage rate, kallikrein [5] [OD/minute]
N=C(N)NCCC[C@H](NC(=O)[C@@H]1CCCCN1C(=O)[C@H](N)Cc1ccccc1)C(=O)Nc1ccc([N+](=O)[O-])cc1 [H--D--Phe--Pip--Arg--pNA, reference compound]	0.075	0.41	0.035	0.025		0.11
N=C(N)NCCC[C@H](NC(=O)CNC(=O)[C@@H]1CCC(=O)N1)C(=O)Nc1ccc([N+](=O)[O-])cc1 [pyro--Glu--Gly--Arg--pNA, reference compound] ([pGlu]-Gly-Arg-pNA)	0.30	0.00	0.01	0.01		0.01
D--Leu--Pro--Arg--Blue 49 [H--D--Leu--Pro--Arg--Blue 49]	0.47	0.09	0.015	0.035		0.015

Continued, in another order:

cleavage rate, protein C [1] [OD/minute]	cleavage rate, thrombin [2] [OD/minute]	cleavage rate, plasmin [3] [OD/minute]	cleavage rate, F Xa [4] [OD/minute]	cleavage rate, urokinase [6]	Molecule	cleavage rate, kallikrein [5] [OD/minute]
0.03	0.395	0.00	0.01		7-(D-phenylalanyl-L-prolyl-L-arginylamino)-3-diethylamino-8-methylphenoxazo nium triacetate [H--D--Phe--Pro--Arg--Blue 49]	0.00
0.40	0.41	0.53	0.04		N=C(N)NCCC[C@H](NC(=O)[C@@H]1CCCN1C(=O)[C@@H]1CCC(=O)N1)C(=O)Nc1ccc([N+](=O)[O-])cc1 [pyro--Glu--Pro--Arg--pNA, reference compound] ([pGlu]-Pro-Arg-pNA)	0.51
0.76	0.15	0.02	0.095		Tos--Gly--Pro--Arg--Blue 49	0.02
0.22	0.015	0.03	0.02	1,0 OD/minute	pyro--Glu--Pro--Arg--Blue 49	0.015

From patent US5097014A, “Chromogenic tripeptides” (Behringwerke Aktiengesellschaft, priority 1986, dated 1992)
